This is an account of results in PMC3041857 (Journal of medicinal chemistry, 2011).

The test system of series [1] is PrP^Sc load in ScN2a-cl3 cells. The format is cell-based, murine.
The conditions of series [2]: mouse, in vivo.

pEC50: −log10 of the molar value. A value given as a limit tells only on which side of the number the result lay.

`FC(F)(F)Oc1ccc(-c2csc(Nc3cc4ccccc4cn3)n2)cc1` [Compound 31, Isoquinolin-3-yl-[4-(4-trifluoromethoxyphenyl)-thiazol-2-yl]-amine]: the “Antiprion activity (in words)” value in series [1] was “inactive”.
Take “[4-(3,4-dimethoxyphenyl)-thiazol-2-yl]-pyridin-3-yl-amine [Compound 7]”: in series [1] (read-out: ScN2a-cl3 EC50), the pEC50 (in general, the EC50 on a negative log10 scale, so that one unit is a factor of ten) was 5.91.
As to `Cc1ccc(Nc2nc(-c3cc(-c4ccccc4)no3)cs2)nc1` [Compound 27, (5-Methylpyridin-2-yl)-[4-(3-phenylisoxazol-5-yl)-thiazol-2-yl]-amine], in series [2] (FVB), the “Mean brain concentration in excess of in vitro EC50” value is at most 25 fold. The “Brain versus plasma concentration” value in series [2] is on record as “generally exceeded those in plasma”.
In the case of `Cc1ccc(Nc2nc(C)cs2)nc1` [Compound 29, (5-Methylpyridin-2-yl)-(4-methylthiazol-2-yl)-amine], the “Antiprion activity (in words)” value in series [1] was “inactive”.
Still for that read-out and setting: for `CNc1nc(-c2ccc(OC)c(OC)c2)cs1` [Compound 5, 4-(3,4-dimethoxyphenyl)-N-methyl-1,3-thiazol-2-amine] the value was “without significant activity”; for `Cc1csc(Nc2cc3ccccc3cn2)n1` [Compound 36, Isoquinolin-3-yl-(4-methylthiazol-2-yl)-amine], “inactive”; for `COc1ccc(-c2csc(Nc3cccc(C)n3)n2)cc1OC` [Compound 4, [4-(3,4-dimethoxyphenyl)-thiazol-2-yl]-(6-methylpyridin-2-yl)-amine], “equipotent to 3”.
